Laboratory results reported in publication PMC10222512, “Thiocarbonyl Derivatives of Natural Chlorins: Synthesis Using Lawesson’s Reagent and a Study of Their Properties” (Molecules, 2023).
Entries after “also recorded” stand apart in the source; their conditions may differ.

How the values were obtained:
[1] = Dark cytotoxicity, MTT assay; format: cell-based, murine; conditions: mouse, S37 murine sarcoma cells; S37 cells; 72 h incubation of compounds with cells, no irradiation, MTT
Description: (§2) To estimate cytotoxicity, cells were incubated with the substances for 72 h under dark conditions in a CO2 incubator.
(§3) Cell survival was estimated using the colorimetric MTT test (24 and 72 h after exposure), which is based on the ability of dehydrogenases in living cells to convert yellow water-soluble 3-(4-5-dimethyl-tetrazolyl-2)-2,5-diphenyltetrazolium bromide to blue crystals of formazan, whose amount is measured spectrophotometrically.

[2] = test system: S37 murine sarcoma cell line; assay: Dark cytotoxicity, MTT assay; format: cell-based
Description: as §2, §3

[3] = test system: S37 murine sarcoma cell line; assay: Photoinduced (combined) cytotoxicity, MTT assay after irradiation; format: cell-based; conditions: S37 cells; for IC50: 4 h PS incubation
Description: To estimate the combined effect (photoinduced and chemocytotoxic) of compound (4) and platinum complex (7), a two-step experiment was designed: incubation of cells with PS for 4 h and irradiation and subsequent incubation for 48 or 72 h followed by estimation of cell survival by the MTT assay.
The S37 murine sarcoma cell line (collection of the N.N. Blokhin Research Institute of Oncology) was used to estimate photoinduced activity and cytotoxicity.
Cells were cultured in DMEM medium (PanEco, Russia) with addition of 2 mM L-glutamine (PanEco, Moscow, Russia) and 10% fetal calf blood serum (FCS) (Corning, New York, NY, USA) in 25 cm^2 culture vials (Corning, USA) at 37 °C in a humid atmosphere containing 5% carbon dioxide. Upon passivation, the Versene solution (PanEco, Russia) was used to remove the cells from the substrate. For in vitro studies, cells of the 3rd and 4th passages were used with an optimal seeding concentration of 6 × 10^4 cells/mL.
The concentrations of the solutions obtained were 0.6 mg/mL for compound (4) and 0.1 mg/mL for compound (7). All the volumes obtained were filtered through a Millipore membrane filter with a pore size of 0.22 μm. Next, the samples were diluted in 24-well plates (Corning, USA) on the cell-culturing medium. The final concentration of the substances ranged from 32 ng/mL to 20 μg/mL.
To perform the experiments, S37 tumor cells were seeded into 96-well plates in the amount of 6 × 10^3 cells per well in a 100 μL volume. Exposure was performed in the exponential phase of cell growth 24 h after seeding. Solutions of compounds in the complete culture medium were added to the wells at final concentrations of 32 ng/mL to 20 μg/mL, in triplicate. The time of cell incubation with compounds before irradiation was 4 h. The culture medium was used as the blank. Light exposure was performed with a halogen lamp through a KS-10 broadband filter (λ > 620 nm). The light dose was 10 J/cm^2. After light exposure, the plates with cells were placed in a CO2 incubator for 24, 48, or 72 h.
Cell survival was estimated using the colorimetric MTT test (24 and 72 h after exposure), which is based on the ability of dehydrogenases in living cells to convert yellow water-soluble 3-(4-5-dimethyl-[…]-2)-2,5-diphenyltetrazolium bromide to blue crystals of formazan, whose amount is measured spectrophotometrically.
Before the test, cells were washed from cytotoxic agents. Then, 0.5% solution of 3-(4,5-dimethylthiazolyl-2)-2,5-diphenyltetrazolium bromide was added to the wells and the system was incubated for 3 h under standard conditions. After incubation, the medium with the MTT-reagent was removed and formazan crystals were dissolved for 10 min with dimethyl sulfoxide. Optical density was measured on a Multiscan FC multichannel plate photometer (Thermo scientific) at 550 nm.
The growth inhibition (GI) of cells in a culture was calculated using the following formula:GI(%) = [ODk − ODo/ODk)] × 100%, where ODo is the optical density of formazan in the test wells and ODk is the optical density of formazan in the control wells.
Quantitative parameters were calculated using the results of three independent tests.

[4] = Chemical stability in lysate of S37 sarcoma cells (Qy band intensity); format: physicochemical; conditions: Cell lysate S37 (pH = 7.8)
Description: (§1) The chemical stability of compounds 4 and 7 was also studied in the lysate of S37 sarcoma cells (pH = 7.8), as well as in the cell culture medium at different pH values. The stability was assessed by the change in the intensity of the Qy bands as described above.

[5] = Chemical stability in cell culture medium at different pH (Qy band intensity); format: physicochemical
Description: as §1

[6] = UV-Vis absorption and fluorescence spectra; format: physicochemical; conditions: dichloromethane; for fluorescence maximum: excitation at 550 nm
Description: Because the pigments noted above are photoactive compounds, it was important to determine the effect of the sulfur atom on their spectral characteristics.
Absorption and fluorescence spectra were recorded on Shimadzu UV1800 UV/VIS (Shimadzu, Duisburg, Germany) and Shimadzu RF-5301 (Shimadzu, Duisburg, Germany) spectrophotometers in quartz cells (0.4 × 1.0 cm) with an optical path length of 1 cm (spectral slit width 1 nm), using dichloromethane, acetone, and water as the solvents. Absorption spectra were recorded in the range of 350–750 nm. Fluorescence spectra were recorded in the range of 600–800 nm (excitation wavelength 550 nm), using dichloromethane, acetone, and water as the solvents. The fluorescence quantum yield was determined by the relative method. A solution of purpurin-18 in toluene was used as the standard. Both ^1H and ^13C NMR spectra were recorded on a Bruker DPX 300 spectrometer (Bruker, Alzenau, Germany). NMR samples were prepared in d6-acetone and CDCl3. Matrix-assisted laser desorption/ionization (MALDI) mass spectra were recorded on a Bruker Ultraflex TOF/TOF spectrometer (Bruker, Alzenau, Germany), with 2,5-dihydroxybenzoic acid as the matrix. Elemental analysis was performed on a Vario Micro Cube analyzer (Elementar, Berlin, Germany).

[7] = Chemical stability in 4% aqueous micellar solution of Kolliphor ELP (absorption band intensity vs time); format: physicochemical
From the text: The stability of pyropheophorbide a 13^1-thioketone (6) in 4% aqueous micellar solution of Kolliphor ELP over time was studied at a neutral pH by monitoring the variation in the Q2 band intensity in the absorption spectra of the sample.
At the next step, we studied the chemical stability of complex 7 obtained in Kolliphor ELP aqueous micellar solutions vs. time at various pH values based on the variation in the intensity of the Qy band in the EAS of the samples (Figure 4).
A solution of compounds (4) or (7) in dichloromethane (1–2 mL) was added dropwise with continuous argon bubbling to a freshly prepared 4% aqueous solution of Kolliphor ® ELP (5 mL) heated to 45 °C. Bubbling was continued until strong foaming started. A clear dark-red solution with a concentration of 0.25 mg/mL was obtained, which was then successively filtered through a 0.45 µm PTFE filter and a 0.22 µm PTFE filter. The concentrations of the resulting micellar solutions were monitored spectrophotometrically.

C=Cc1c(C)c2cc3nc(c4c5[nH]c(cc6nc(cc1[nH]2)C(C)=C6CC)c(C)c5C(=O)C4)[C@@H](CCC(=O)OC)[C@@H]3C [Compound 4, pyropheophorbide a methyl ester, reference compound]
IC50 at 72 h [1]: > 36400 nM
cytotoxic effect without light irradiation (in words) ([2]; S37 sarcoma cells, 72 h incubation, dark): no cytotoxic effect on cells; also recorded: does not have a pronounced cytotoxicity
IC50 ([3]; Mus musculus, S37, light or radiation study, irradiation at 10 J/cm^2, MTT after 24 h, read-out: IC50, Photoinduced cytotoxicity): 4198 ± 13 nM
IC50 ([3]; Mus musculus, S37, light or radiation study, irradiation at 10 J/cm^2, MTT after 48 h, read-out: IC50, Combined cytotoxicity): 4076 ± 11 nM
IC50 ([3]; Mus musculus, S37, light or radiation study, irradiation at 10 J/cm^2, MTT after 72 h, read-out: IC50, Combined cytotoxicity): 4023 ± 13 nM
photoinduced activity, times lower than that of the platinum complex ([3]; versus platinum complex 7): 8.8 times
Content, % ([4]; 0 min): 100%
Intensity at 666 nm ([4]; 0 min): 0.9538
Content, % ([4]; 4 h): 91%
Intensity at 666 nm ([4]; 4 h): 0.8679
Content, % ([4]; 24 h): 82%
Intensity at 666 nm ([4]; 24 h): 0.7821
Content, % ([4]; 72 h): 76%
Intensity at 666 nm ([4]; 72 h): 0.7249
Content, % ([5]; pH 4, 0 min): 100%
Intensity at 666 nm ([5]; pH 4, 0 min): 0.9538
Content, % ([5]; pH 4, 4 h): 70%
Intensity at 666 nm ([5]; pH 4, 4 h): 0.6677
Content, % ([5]; pH 4, 24 h): 60%
Intensity at 666 nm ([5]; pH 4, 24 h): 0.5723
Content, % ([5]; pH 4, 72 h): 58%
Intensity at 666 nm ([5]; pH 4, 72 h): 0.5532
Content, % ([5]; pH 7, 0 min): 100%
Intensity at 666 nm ([5]; pH 7, 0 min): 0.9538
Content, % ([5]; pH 7, 4 h): 93%
Intensity at 666 nm ([5]; pH 7, 4 h): 0.887
Content, % ([5]; pH 7, 24 h): 87%
Intensity at 666 nm ([5]; pH 7, 24 h): 0.8298
Content, % ([5]; pH 7, 72 h): 79%
Intensity at 666 nm ([5]; pH 7, 72 h): 0.7535
Content, % ([5]; pH 9, 0 min): 100%
Intensity at 666 nm ([5]; pH 9, 0 min): 0.9538
Content, % ([5]; pH 9, 4 h): 85%
Intensity at 666 nm ([5]; pH 9, 4 h): 0.8107
Content, % ([5]; pH 9, 24 h): 78%
Intensity at 666 nm ([5]; pH 9, 24 h): 0.744
Intensity at 666 nm ([5]; pH 9, 72 h): 0.7058
fluorescence maximum [6]: 684 nm

C=Cc1c(C)c2cc3nc(c4c5[nH]c(cc6nc(cc1[nH]2)C(C)=C6CC)c(C)c5C(=S)C4C(=O)OC)[C@@H](CCC(=O)OC)[C@@H]3C (some centres unmarked) [Compound 5]
long-wave absorption maximum (Q2 band) [6]: 706 nm
fluorescence maximum [6]: 719 nm

C=Cc1c(C)c2cc3nc(c4c5[nH]c(cc6nc(cc1[nH]2)C(C)=C6CC)c(C)c5C(=S)C4)[C@@H](CCC(=O)OC)[C@@H]3C [Compound 6, Pyropheophorbide a 13^1-Thioketone]
decrease of Q2 band ([7]; 4% Kolliphor ELP micellar solution, neutral pH, after 3 h): more than 50%
conversion of thioketone to pyropheophorbide a (4) ([7]; 4% Kolliphor ELP micellar solution, neutral pH, after 24 h): completely converted
long-wave absorption maximum (Q2 band) [6]: 708 nm
fluorescence maximum [6]: 723 nm

C=Cc1c(C)c2cc3nc(c4c5[nH]c(cc6nc(cc1[nH]2)C(C)=C6CC)c(C)c5C(=[S+][Pt-2]([NH3+])([NH3+])[Cl])C4)[C@@H](CCC(=O)OC)[C@@H]3C.O=[N+]([O-])[O-] (some centres unmarked) [Compound 7, Platinum Complex of Pyropheophorbide a 13^1-Thioketone]
chemical stability (Qy band) ([7]; Kolliphor ELP micellar solution, acid, pH = 4): hypsochromic shift in the Qy band to the 666 nm region
chemical stability (Qy band intensity) ([7]; Kolliphor ELP micellar solution, alkaline, pH = 9): a precipitate formed and the intensity of the Qy absorption band decreased
chemical stability (Qy band intensity) ([7]; Kolliphor ELP micellar solution, pH = 7): remained stable for 24 h
IC50 ([2]; S37 cells, 72 h incubation of compounds with cells, no irradiation, MTT): 271 ± 7 nM
IC50 ([3]; irradiation at 10 J/cm^2, MTT after 24 h, read-out: IC50, Photoinduced cytotoxicity): 478 ± 9 nM
IC50 ([3]; irradiation at 10 J/cm^2, MTT after 48 h, read-out: IC50, Combined cytotoxicity): 146 ± 7 nM
IC50 ([3]; irradiation at 10 J/cm^2, MTT after 72 h, read-out: IC50, Combined cytotoxicity): 98 ± 5 nM
increase of photocytotoxicity on increasing incubation time after irradiation ([3]; from 24 h to 72 h after irradiation): 5 fold
Content, % ([4]; 0 min): 100%
Intensity at 675 nm ([4]; 0 min): 0.913
Content, % ([4]; 4 h): 89%
Intensity at 675 nm ([4]; 4 h): 0.8126
Content, % ([4]; 24 h): 84%
Intensity at 675 nm ([4]; 24 h): 0.7669
Content, % ([4]; 72 h): 79%
Intensity at 675 nm ([4]; 72 h): 0.7213
Content, % ([5]; pH 4, 0 min): 100%
Intensity at 675 nm ([5]; pH 4, 0 min): 0.913
Content, % ([5]; pH 4, 4 h): 25%
Intensity at 675 nm ([5]; pH 4, 4 h): 0.2282
Content, % ([5]; pH 4, 24 h): 17%
Intensity at 675 nm ([5]; pH 4, 24 h): 0.1552
Content, % ([5]; pH 4, 72 h): 11%
Intensity at 675 nm ([5]; pH 4, 72 h): 0.1004
Content, % ([5]; pH 7, 0 min): 100%
Intensity at 675 nm ([5]; pH 7, 0 min): 0.913
Content, % ([5]; pH 7, 4 h): 97%
Intensity at 675 nm ([5]; pH 7, 4 h): 0.8856
Content, % ([5]; pH 7, 24 h): 94%
Intensity at 675 nm ([5]; pH 7, 24 h): 0.8582
Content, % ([5]; pH 7, 72 h): 91%
Intensity at 675 nm ([5]; pH 7, 72 h): 0.833
Content, % ([5]; pH 9, 0 min): 100%
Intensity at 675 nm ([5]; pH 9, 0 min): 0.913
Content, % ([5]; pH 9, 4 h): 87%
Intensity at 675 nm ([5]; pH 9, 4 h): 0.7943
Content, % ([5]; pH 9, 24 h): 75%
Intensity at 675 nm ([5]; pH 9, 24 h): 0.6847
Content, % ([5]; pH 9, 72 h): 65%
Intensity at 675 nm ([5]; pH 9, 72 h): 0.5277

Pheophorbide a [Compound 3, reference compound]
long-wave absorption maximum (Q2 band) [6]: 666 nm
fluorescence maximum [6]: 680 nm
